The results in this text go back to US10301258B2, “Benzende sulfonamide derivatives as HIV integrase inhibitors” (priority 2014, dated 2019).

SMILES strings stand for the structures. “Also recorded” adds a separate entry of the source.

The test system of series [1] is HeLa cells. Particulars: lentiviral vector screening, at high concentrations.
Procedure: For the vector assay HeLa cells were utilized and the HIV-1 lentiviral vector screening was performed in a 24 well plate. […] As the negative control AZT was used, a positive control as vector only and blank as un-infected were additionally used. Again the concentration of DMSO was limited to 0.1%. Hela cells (˜3.2*10^5 cells/ml) were infected with HIV-1 lentiviral vector in the presence of the compound(s) tested and controls. After the first 24 hours of incubation at 37° C. (5% CO2), cells were replaced with fresh media containing test compounds and incubated for an additional 24 hrs. Cells were fixed with 4% paraformaldehyde in PBS and mounted in DAPI on glass slides for visualization and quantification. Images, of at least 2 fields per glass disk were taken with an Olympus 1X51 fluorescence microscope equipped with a camera.
Series [2] deals with HIV-1 lentiviral vector. As to the kind of experiment: HIV-1 lentiviral vector screening assay. It counts as cell-based. Particulars: HeLa cells, compared with no drug.
Procedure: For the vector assay HeLa cells can be utilized and the experiment can be performed in a suitable plate, such as a 24 well plate. […] A negative control, e.g., AZT, and a positive control as vector only and blank as un-infected are appropriately selected. Again, the concentration of DMSO was limited to 0.1%. Hela cells (˜3.2-10^5 cells/ml) were infected with HIV-1 lentiviral vector in the presence of the compounds to be tested and controls. After the first 24 hours of incubation at 37° C. (5% CO2), cells are replaced with fresh media containing test compounds and incubated for an additional 24 hrs. Cells are fixed with 4% paraformaldehyde in PBS and mounted in DAPI on glass slides for visualization and quantification. Images, of at least 2 fields per glass disk are obtained, such as images taken with an Olympus 1X51 fluorescence microscope equipped with a camera. EGFP fluorescence spanning an average area of 12*10^5 square pixels is quantified using Image J software, from which IC50 values can bee extrapolated using graph pad PRISM software.
For the vector assay HeLa cells were utilized and the HIV-1 lentiviral vector screening was performed in a 24 well plate. […] Cells were fixed with 4% paraformaldehyde in PBS and mounted in DAPI on glass slides for visualization and quantification. […]
For series [3], the system named is HIV-1 integrase (C-terminal domain), eGFP-MBP-IN-WT. Nature of the series: cellular integrase assay (integrase screening assay, nuclear import inhibition). Particulars: HEK 293T cells transfected with eGFP-MBP-IN-WT, fluorescence microscopy, FIG. 1. The format is cell-based. As to the method:
In assessing suitability of a compound according to any of the formulas herein, an integrase screening assay can be conducted. In the present case, an exemplary such assay is a cellular integrase assay. A cellular integrase assay can be performed in a 24 well plate. The assay is designed to test compounds in 3-fold serial dilutions (10, 3.3, 1.1 and 0.33 μM) with 0.1% DMSO. Negative and positive control included eGFP-MBP-IN-R262/3/6A, eGFP-MBP-IN-K236/240 and eGFP-MBP-IN-WT respectively supplemented with 0.1% DMSO. Refinement of the assay for optimal results is feasible. For example, refinement herein yields the following protocol. HEK 293T cells (˜0.4*10^5 cells/ml) are seeded and incubated at 37° C. (5% CO2) for ˜3 days on Poly-L-lysine treated glass coverslips until 80-90% confluent (˜3.2*10^5 cells/ml). Next, cells are transfected with 1 μg of eGFP-MBP-INR262/3/6A, eGFP-MBP-IN-K236/240 and eGFP-MBP-IN-WT DNA plasmid simultaneously with test compounds, at varying concentrations mentioned above, using lipofectamine 2000 transfection reagent (μL) at a ratio of 1:2 DNA plasmid to lipofectamine. After 4 hrs of incubation (at 37° C., 5% CO2), the lipofectamine mix is removed and replaced with fresh medium containing serum in the presence of the test compounds. […] Images may be prepared using an Olympus 1X51 fluorescence microscope equipped with a camera by way of example. […]

`Cc1ccc(S(=O)(=O)NCCCNS(=O)(=O)c2ccc(C)cc2)cc1` [compound 535, 4-methyl-N-[3-(4-methylbenzenesulfonamido)propyl] benzene sulfonamide]: in series [1], the cellular toxicity entry is reported as “without introducing cellular toxicity”. Moreover, the “inhibitory effect on HIV infectivity / HIV-1 replication, dose dependence” value was “exhibited an inhibitory effect in a dose dependent manor” in series [2] (FIG. 2) and “clearly inhibited HIV-1 replication in a dose-dependent manor” in series [2] (FIG. 2, listed as representative compound). Also, the “inhibition of nuclear import of integrase (nuclear exclusion phenotype)” value in series [3] was “nuclear exclusion of the fusion protein in majority of cells; also recorded: exhibited inhibition sufficient to prevent nuclear import of integrase; also recorded: clearly demonstrates inhibition of nuclear import of IN”; in series [3] (listed as representative compound), “displayed inhibition of nuclear import of IN similar to that of the triple mutant chimeric IN”.
